Here are results for one compound from patent EP4710775A1, “COMPOSITION FOR PROMOTING CHILD DEVELOPMENT” (Meiji Holdings Co., Ltd., priority 2023, dated 2024).

Type in all cases: in vivo, mouse (C57BL/6J)
The nature of assay [1]: Measurement of grip strength (forelimb) after weaning in mice given NMN in infancy. The conditions noted are these: three weeks after weaning; males and females combined, n = 20 per group; corrected by body weight; NMN orally gavaged days 3 to 21 after birth (500 mg/kg BW from day 14); vs control group, p < 0.05. The procedure:
(§1) β-Nicotinamide mononucleotide (NMN) to be administered to mice was dissolved at a concentration of 100 mg/mL in distilled water and then used for administration.
(§2) Ten female C57BL/6J lines at day 13 of gestation were purchased. The mice were individually raised in a breeding room at a room temperature of 22 ± 2°C, humidity of 55 ± 15%, light period of 7:00 to 19:00, and dark period of 19:00 to 7:00 until the birth of the pups, and after the birth, group breeding was performed with the pups until weaning, and the born mouse pups were used for the test. […]
(§3) The body weights of all the mouse pups were measured on the day of weaning, and the pups were divided into a total of four groups: a control group and an NMN group for males and a control group and an NMN group also for females (n = 10 for each group), so that the average values of the body weights were equal. […]
Three weeks after weaning, the grip strength (forelimb only) of all the individuals was measured using Grip Strength Meter for Rats & Mice (MK-380CM/F, manufactured by Muromachi Kikai Co., Ltd.). The measurement was performed 10 times per individual, and the maximum value was recorded. […]

Assay [2] in a line: Open field test: amount of voluntary activity and average moving speed after weaning. The conditions noted are these: two weeks after weaning, 10 minutes, males and females combined, n = 20 per group, NMN orally days 3 to 21 after birth, vs control group, p < 0.05. Here is the method:
as §1, §2, §3
Two weeks after weaning, an open field test was performed on all the individuals to measure the amount of voluntary activity and the average moving speed. […] From the obtained moving image, the amount of voluntary activity (total movement distance) and the average moving speed (average of moving speed excluding immobility state) were calculated using dedicated analysis software (SMART3.0: manufactured by Panlab).

Assay [3] can be described thus: Measurement of blood glucose level in plasma after weaning (Glucose II-test Wako). The note with it: two weeks after weaning, males only, NMN n = 5, control n = 7, NMN orally days 3 to 21 after birth, vs control group, p < 0.01. The procedure: as §1
(§4) Ten female C57BL/6J lines at day 13 of gestation were purchased. The mice were individually raised in a breeding room at a room temperature of 22 ± 2°C, humidity of 55 ± 15%, light period of 7:00 to 19:00, and dark period of 19:00 to 7:00 until the birth of the pups, and after the birth, group breeding was performed with the pups until weaning, and the born mouse pups were used for the test.
(§5) All the mouse pups were subjected to sex determination on day 3 after birth, and were divided into distilled water administration (later control group) and NMN administration (later NMN group) so that the number of males and females was approximately half in the littermates. […]
(§6) The body weights of the mouse pups were measured on the day of weaning, and the pups were divided into a total of two groups: a control group (n = 7) and an NMN group (n = 5) only for males. […]
Using the separated plasma, the blood glucose concentration (blood glucose level) was measured by a kit (Glucose II-test Wako: No. 439-90901).

Assay [4] in a line: Measurement of plasma triglyceride concentration after weaning (Triglyceride E-test Wako). The note with it: two weeks after weaning, males only, NMN n = 5, control n = 7, NMN orally days 3 to 21 after birth, vs control group. The procedure: as §1, §4, §5, §6
Using the separated plasma, the triglyceride concentration was measured by a kit (Triglyceride E-test Wako: No. 432-40201).

Assay [5] is described as follows: White fat weight measurement (white adipose tissue around the reproductive organ) after weaning. The note with it: two weeks after weaning; relative weight corrected by body weight; males and females combined, n = 10 per group; NMN orally days 3 to 21 after birth; vs control group, p < 0.01. Here is the method:
as §1, §4, §5
The body weights of all the mouse pups were measured on the day of weaning, and the pups were divided into a total of four groups: a control group (n = 7) and an NMN group (n = 5) for males, and a control group (n = 3) and an NMN group (n = 5) also for females. After weaning, the mice were normally bred for 2 weeks and dissected, the white adipose tissue around the reproductive organ was extracted, and the weight thereof was measured. […]

On to `NC(=O)c1ccc[n+]([C@@H]2O[C@H](COP(=O)([O-])O)[C@@H](O)[C@H]2O)c1` [NMN, β-Nicotinamide mononucleotide], for which, in assay [1], the grip strength entry was “high as compared to that in the control group”. Besides, the average moving speed entry in assay [2] (excluding immobility state) was “high as compared to those in the control group”. Also, the “amount of voluntary activity” value in assay [2] (total movement distance) is listed as “high as compared to those in the control group”. The blood glucose levels entry in assay [3] is on record as “significantly low as compared to those in the control group”. Further, the blood triglyceride concentration entry in assay [4] is “tended to be low as compared to that in the control group”. Besides, the white fat weight entry in assay [5] is reported as “low as compared to that in the control group”.
